Assay results reported in patent US20230000995A1, “DOLASTATIN 10 ANALOG” (Ariel Scientific Innovations Ltd., priority 2020, published 2023).
Like-named read-outs stand apart in the source and are kept apart here. Where a SMILES comes first, the peptide text is derived from it. [ ]: non-standard residue; d: D form. Dolaproine = CO[C@@H]([C@@H]1CCCN1)[C@@H](C)C(=O)O; Dil = CC[C@H](C)[C@H](NC)[C@@H](CC(=O)O)OC; Phe(ol) = N[C@H](CO)Cc1ccccc1; NMeV = CN[C@H](C(=O)O)C(C)C

Experiments:
[1] = tested on: HCT116 (human colon cancer cell line); assay: In vitro cytotoxicity, XTT assay, 8 days incubation; format: cell-based; conditions: read-out: IC50 HC116 (8 days)
Source text: (§1) The exemplary dolastatin 10 analog, Dolas-Ol, was subjected to an in vitro assay to test its cytotoxicity towards two cancerous cell lines: WM266-4 (malignant melanoma cell line)) and HCT116 (human colon cancer cell line). The study was design to assess the activity of a dolastatin 10 analog, according to some embodiments of the present invention, compared to other dolastatin 10 derivatives known in the art, Auristatin F, Auristatin F-Ol and Dolastatin-CO2H.
(§2) All samples contained DMSO at final concentration<0.05%. Cells cultures were initiated in microplate wells at a concentration of 2-4×10^4 cells/well and the cells were allowed to adhere for 24 h incubation period. At this time the cells were washed, fresh medium containing different concentrations of the tested substances were added and the cells were incubated for additional 8 days. The medium was then removed, all the wells were washed with PBS and cultured for 24 hrs in fresh medium without drugs. The cells were washed again and given a fresh medium containing the XTT reagent and re-incubated for 2-4 h. Absorbence in the wells was measured with a TECAN Infinite M200 ELISA reader at both 480 and 680 nm e, the latter being the background absorbance. The absorbencies were normalized to the absorbance of cells grown in medium and solvent. All the tests were repeated three times in quadruplicates.

[2] = tested on: WM266-4 (malignant melanoma cell line); assay: as above; format: cell-based; conditions: read-out: IC50 MW266 (8 days)
Source text: as §1, §2

[3] = tested on: L1210 murine leukemia cells; conditions: L1210 murine leukemia cells in culture; read-out: IC50 value for cell growth; cited from earlier work
tubulin [4] = conditions: purified tubulin in glutamate; read-out: IC50 for the polymerization of purified tubulin in glutamate; cited from earlier work
tubulin [5] = conditions: cited from earlier work
[6] = tested on: HC116 cells that overexpressed SSTR2; assay: Growth inhibition by Dolas-Ol conjugates, XTT assay; format: cell-based; conditions: 1 μM, 3 hours exposure, then 8 days
Experimental: (§3) Table 2 presents the growth inhibition values of octreotide amide, conjugates 8b-d in the cell cultures calculated according to the concentration of 1 μM. The calculation for all values is provided relative to control 100% of GI (for all values, p<0.01).

[7] = tested on: TRAMP C2 cells that overexpressed SSTR2; assay: as above; format: cell-based; conditions: 1 μM, 3 hours exposure, then 8 days
Experimental: as §3

[8] = tested on: H1299 cells that overexpressed SSTR2; assay: as above; format: cell-based; conditions: 1 μM, 3 hours exposure, then 8 days
Experimental: as §3

[9] = tested on: cell lines with overexpressed SSTR2 versus HEK; conditions: 1 μM; SSTR2 overexpressing cell lines versus HEK with low expression
Experimental: HC116, H1299 and TRAMP C2 cells that overexpressed SSTR2 were incubated for 3 hours with 1 μM doses of the conjugates, according to some embodiments of the present invention, and then the cells were washed and proceed for incubation for the following 8 days. At the end of incubation for 8 days, the metabolic activities of cells were measured using the XTT assay.

[10] = tested on: HEK (low SSTR2 expression); assay: Growth inhibition by Dolas-Ol conjugates, XTT assay, negative control cells; format: cell-based; conditions: 1 μM, 3 hours exposure, then 8 days
Experimental: as §3

Row | Compound | IC50 ([1]; Homo sapiens, HCT-116, 192 h) [nM] | IC50 ([2]; Homo sapiens, WM 266-4, 192 h) [nM] | IC50 [3] [nM] | IC50 (tubulin [4]) [nM] | also measured
1 | CC[C@H](C)[C@@H]([C@@H](CC(=O)N1CCC[C@H]1[C@H](OC)[C@@H](C)C(=O)N[C@@H](Cc1ccccc1)c1nc(C(=O)O)cs1)OC)N(C)C(=O)[C@@H](NC(=O)[C@H](C(C)C)N(C)C)C(C)C [Dolastatin- CO2H] | 52.5 ± 0.03 | 31.75 ± 0.02 | – | – | –
2 | C=C(C)[C@@H]1NC(=O)[C@@H](NC)[C@@H](O)c2cc(Cl)c(O)c(c2)O[C@](C)(CC)[C@@H](C(=O)N2CC=C[C@H]2C(=O)N/C(C(=O)N/C(=C/C(=O)O)C(=O)O)=C(\C)CC)NC1=O [phomopsin A] | – | – | 7000 | 1400 | –
3 | CO[C@@H](/C(C)=C/C=C/C(C)=C/c1coc(C)n1)[C@@H](C)[C@@H]1C[C@H](O)[C@@]2(C)O[C@@H]2/C=C/[C@@H](C)[C@H]2C[C@H](CC(=O)O2)C[C@@H]2O[C@H]2C(=O)O1 [rhizoxin] | – | – | 1 | 6800 | –
4 | (2S)-2-((S)-2-(dimethylamino)-3-methylbutanamido)-N-((3R,4S,5S)-1-((2S)-2-((1R,2R)-3-((1-(5-(hydroxymethyl)thiazol-2-yl)-2-phenylethyl)amino)-1-methoxy-2-methyl-3-oxopropyl)pyrrolidin-1-yl)-3-methoxy-5-methyl-1-oxoheptan-4-yl)-N,3-dimethylbutanamide [Dolas-O1] | – | – | – | – | IC50 [1]: 3.67 ± 0.03 nM; IC50 [2]: 2.24 ± 0.03 nM
5 | CC[C@H](C)[C@@H]([C@@H](CC(=O)N1CCC[C@H]1[C@H](OC)[C@@H](C)C(=O)N[C@@H](Cc1ccccc1)C(=O)O)OC)N(C)C(=O)[C@@H](NC(=O)[C@@H](NC)C(C)C)C(C)C (H-[NMeV]V[Dil][Dolaproine]F-OH) | 18.27 ± 0.06 | 15.59 ± 0.03 | – | – | –
6 | COc1cc2cc(c1Cl)N(C)C(=O)C[C@H](OC(=O)[C@H](C)N(C)C(C)=O)[C@]1(C)O[C@H]1[C@H](C)[C@@H]1C[C@@](O)(NC(=O)O1)[C@H](OC)/C=C/C=C(\C)C2 [maytansine] | – | – | 0.5 | 3500 | –
7 | CC[C@]1(O)C[C@@H]2CN(CCc3c([nH]c4ccccc34)[C@@](C(=O)OC)(c3cc4c(cc3OC)N(C)[C@H]3[C@@](O)(C(=O)OC)[C@H](OC(C)=O)[C@]5(CC)C=CCN6CC[C@]43[C@@H]65)C2)C1 [vinblastine] | – | – | 20 | […] | –
8 | CC[C@H](C)[C@@H]([C@@H](CC(=O)N1CCC[C@H]1[C@H](OC)[C@@H](C)C(=O)N[C@H](CO)Cc1ccccc1)OC)N(C)C(=O)[C@@H](NC(=O)[C@@H](NC)C(C)C)C(C)C [Auristatin F- O1] (H-[NMeV]V[Dil][Dolaproine][Phe(ol)]) | 29.71 ± 0.04 | 58.82 ± 0.05 | – | – | –
9 | CC[C@H](C)[C@@H]([C@@H](CC(=O)N1CCC[C@H]1[C@H](OC)[C@@H](C)C(=O)N[C@@H](Cc1ccccc1)c1nccs1)OC)N(C)C(=O)[C@@H](NC(=O)[C@H](C(C)C)N(C)C)C(C)C [Dolastatin 10] | – | – | 0.5 | 1200 | inhibition of the binding of radiolabeled vinblastine and vincristine to tubulin (tubulin [5]): strongest inhibitor
10 | C[C@@H](O)[C@H](NC(=O)[C@@H]1CSSC[C@H](NC(=O)[C@H](N)Cc2ccccc2)C(=O)N[C@@H](Cc2ccccc2)C(=O)N[C@H](Cc2c[nH]c3ccccc23)C(=O)N[C@@H](CCCCN)C(=O)N[C@@H]([C@@H](C)O)C(=O)N1)C(N)=O [Octreotide amide] | – | – | – | – | growth inhibition, HC116-8 days [6]: 6.1%; growth inhibition, TRAMP C2-8 days [7]: 6.5%; growth inhibition, H1299-8 days [8]: 8.4%; cytotoxicity (in words) [9]: not cytotoxic; growth inhibition, HEK as negative control [10]: 7.9%
